Reference: ChEMBL document CHEMBL1140010, “Discovery of novel prostaglandin analogs of PGE2 as potent and selective EP2 and EP4 receptor agonists” (Bioorg Med Chem Lett, 2007)

Target: T1, Prostaglandin E2 receptor EP3 subtype (Homo sapiens, UniProt P43115)
T1 sequence (P43115 whole entry): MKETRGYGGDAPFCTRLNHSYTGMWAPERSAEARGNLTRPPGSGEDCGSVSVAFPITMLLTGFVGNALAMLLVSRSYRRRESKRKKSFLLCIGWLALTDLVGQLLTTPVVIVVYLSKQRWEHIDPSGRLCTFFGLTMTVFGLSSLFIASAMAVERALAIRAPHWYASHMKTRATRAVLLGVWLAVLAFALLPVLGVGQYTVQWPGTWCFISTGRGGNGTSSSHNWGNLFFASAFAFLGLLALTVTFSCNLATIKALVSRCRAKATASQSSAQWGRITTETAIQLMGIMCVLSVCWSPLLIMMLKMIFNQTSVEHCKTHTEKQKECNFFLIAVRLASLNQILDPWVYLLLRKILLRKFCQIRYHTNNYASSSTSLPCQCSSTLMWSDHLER
Experiment: Displacement of [3H]PGE2 from human EP3 receptor expressed in HEK293 cells
Format: cell-based
Conditions: not given

Ki	Compound
9000 nM	CCCC[C@H](O)/C=C/[C@H]1CCC(=O)N1CCc1ccc(C(=O)O)cc1
10000 nM	CCCC/C(C)=C/C=C/[C@H]1CCC(=O)N1CCc1ccc(C(=O)O)cc1
10000 nM	CCCC/C(C)=C\C=C\[C@H]1CCC(=O)N1CCc1ccc(C(=O)O)cc1

Test system: Mus musculus
Experiment: Induction of ovulation in orally dosed CD1 mouse
Format: functional
Conditions: CD1, po

Compound	ED50
CCCC/C(C)=C\C=C\[C@H]1CCC(=O)N1CCc1ccc(C(=O)O)cc1	1 mg/kg

Test system: not listed separately
Experiment: Half life in rat
Format: ADME, organism-based
Conditions: in vivo

half-life	Compound
7.7 h	CCCC/C(C)=C\C=C\[C@H]1CCC(=O)N1CCc1ccc(C(=O)O)cc1

Test system: not listed separately
Experiment: Clearance in iv dosed rat
Format: ADME, organism-based
Conditions: in vivo

clearance	Compound
2.5 mL/min/kg	CCCC/C(C)=C\C=C\[C@H]1CCC(=O)N1CCc1ccc(C(=O)O)cc1

Test system: not listed separately
Experiment: Bioavailability in rat at 1 mg/kg
Format: ADME, organism-based
Conditions: in vivo

bioavailability	Compound
72.6%	CCCC/C(C)=C\C=C\[C@H]1CCC(=O)N1CCc1ccc(C(=O)O)cc1

Target: T2, Prostaglandin E2 receptor EP4 subtype (Homo sapiens, UniProt P35408)
T2 sequence (P35408 whole entry): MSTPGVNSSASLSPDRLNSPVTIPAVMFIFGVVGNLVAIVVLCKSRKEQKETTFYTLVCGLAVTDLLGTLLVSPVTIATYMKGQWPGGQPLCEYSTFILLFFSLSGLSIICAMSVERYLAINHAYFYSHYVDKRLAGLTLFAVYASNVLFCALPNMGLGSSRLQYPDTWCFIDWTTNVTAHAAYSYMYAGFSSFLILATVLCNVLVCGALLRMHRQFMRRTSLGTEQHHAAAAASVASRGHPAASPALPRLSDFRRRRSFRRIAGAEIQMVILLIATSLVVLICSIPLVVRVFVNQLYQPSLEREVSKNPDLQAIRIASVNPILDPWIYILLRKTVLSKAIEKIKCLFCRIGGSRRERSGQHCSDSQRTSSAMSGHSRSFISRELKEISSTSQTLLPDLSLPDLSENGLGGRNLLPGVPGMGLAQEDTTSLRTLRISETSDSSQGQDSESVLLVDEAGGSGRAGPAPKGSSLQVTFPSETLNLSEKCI
Experiment: Displacement of [3H]PGE2 from human EP4 receptor expressed in HEK293 cells
Format: cell-based
Conditions: not given

Ki	Compound
117 nM	C/C(=C/C=C/[C@H]1CCC(=O)N1CCc1ccc(C(=O)O)cc1)CC1CCCC1
29 nM	C/C(=C\C=C\[C@H]1CCC(=O)N1CCc1ccc(C(=O)O)cc1)c1ccccc1
2.5 nM	CCCC[C@H](O)/C=C/[C@H]1CCC(=O)N1CCc1ccc(C(=O)O)cc1
181 nM	CCCC/C(C)=C/C=C/[C@H]1CCC(=O)N1CCc1ccc(C(=O)O)cc1
4 nM	CCCC/C(C)=C\C=C\[C@H]1CCC(=O)N1CCc1ccc(C(=O)O)cc1
25 nM	CCCC/C=C\C=C\[C@H]1CCC(=O)N1CCc1ccc(C(=O)O)cc1
24 nM	CC/C(C)=C\C=C\[C@H]1CCC(=O)N1CCc1ccc(C(=O)O)cc1
45 nM	CC(C)=C/C=C/[C@H]1CCC(=O)N1CCc1ccc(C(=O)O)cc1

Compound	Ki
CCCC/C=C(C)/C=C\[C@H]1CCC(=O)N1CCc1ccc(C(=O)O)cc1	443 nM

Target: T3, Prostaglandin E2 receptor EP1 subtype (Homo sapiens, UniProt P34995)
T3 sequence (P34995 whole entry): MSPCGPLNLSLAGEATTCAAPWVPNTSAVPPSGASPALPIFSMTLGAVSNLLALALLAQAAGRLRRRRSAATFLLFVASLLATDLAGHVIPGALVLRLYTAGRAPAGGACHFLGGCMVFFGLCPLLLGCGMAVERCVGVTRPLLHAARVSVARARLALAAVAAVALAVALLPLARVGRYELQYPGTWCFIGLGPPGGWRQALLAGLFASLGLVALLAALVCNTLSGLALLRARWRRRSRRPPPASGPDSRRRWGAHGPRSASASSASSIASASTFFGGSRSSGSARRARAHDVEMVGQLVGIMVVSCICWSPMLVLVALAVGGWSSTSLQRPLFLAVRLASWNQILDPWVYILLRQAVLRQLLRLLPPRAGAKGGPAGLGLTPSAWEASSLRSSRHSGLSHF
Experiment: Displacement of [3H]PGE2 from human EP1 receptor expressed in HEK293 cells
Format: cell-based
Conditions: not given

Ki	Compound
> 10000 nM	CCCC[C@H](O)/C=C/[C@H]1CCC(=O)N1CCc1ccc(C(=O)O)cc1
10000 nM	CCCC/C(C)=C/C=C/[C@H]1CCC(=O)N1CCc1ccc(C(=O)O)cc1
10000 nM	CCCC/C(C)=C\C=C\[C@H]1CCC(=O)N1CCc1ccc(C(=O)O)cc1

Target: T4, Prostaglandin E2 receptor EP2 subtype (Homo sapiens, UniProt P43116)
T4 sequence (P43116 whole entry): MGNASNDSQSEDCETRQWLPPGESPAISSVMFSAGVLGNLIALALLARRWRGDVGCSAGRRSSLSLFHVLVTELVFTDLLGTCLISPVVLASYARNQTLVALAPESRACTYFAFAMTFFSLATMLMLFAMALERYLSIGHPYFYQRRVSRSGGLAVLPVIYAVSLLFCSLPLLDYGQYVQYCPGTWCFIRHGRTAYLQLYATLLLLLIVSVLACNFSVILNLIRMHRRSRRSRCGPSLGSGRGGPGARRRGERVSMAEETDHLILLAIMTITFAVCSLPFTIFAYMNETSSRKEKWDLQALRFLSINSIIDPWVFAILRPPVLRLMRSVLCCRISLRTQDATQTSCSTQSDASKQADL
Experiment: Displacement of [3H]PGE2 from human EP2 receptor expressed in HEK293 cells
Format: cell-based
Conditions: not given

Ki	Compound
60 nM	C/C(=C/C=C/[C@H]1CCC(=O)N1CCc1ccc(C(=O)O)cc1)CC1CCCC1
749 nM	C/C(=C\C=C\[C@H]1CCC(=O)N1CCc1ccc(C(=O)O)cc1)c1ccccc1
126 nM	CCCC[C@H](O)/C=C/[C@H]1CCC(=O)N1CCc1ccc(C(=O)O)cc1
134 nM	CCCC/C(C)=C/C=C/[C@H]1CCC(=O)N1CCc1ccc(C(=O)O)cc1
60 nM	CCCC/C(C)=C\C=C\[C@H]1CCC(=O)N1CCc1ccc(C(=O)O)cc1
88 nM	CCCC/C=C\C=C\[C@H]1CCC(=O)N1CCc1ccc(C(=O)O)cc1
173 nM	CC/C(C)=C\C=C\[C@H]1CCC(=O)N1CCc1ccc(C(=O)O)cc1
1850 nM	CC(C)=C/C=C/[C@H]1CCC(=O)N1CCc1ccc(C(=O)O)cc1
29 nM	CCCC/C=C(C)/C=C/[C@H]1CCC(=O)N1CCc1ccc(C(=O)O)cc1

Compound	Ki
CCCC/C=C(C)/C=C\[C@H]1CCC(=O)N1CCc1ccc(C(=O)O)cc1	802 nM

Target: T2, Prostaglandin E2 receptor EP4 subtype
Experiment: Agonist activity at EP4 receptor expressed in HEK293 cells assessed as cAMP accumulation
Format: functional, cell-based
Conditions: not given

EC50	Compound
0.5 nM	C/C(=C\C=C\[C@H]1CCC(=O)N1CCc1ccc(C(=O)O)cc1)c1ccccc1
0.002 nM	CCCC[C@H](O)/C=C/[C@H]1CCC(=O)N1CCc1ccc(C(=O)O)cc1
15 nM	CCCC/C(C)=C/C=C/[C@H]1CCC(=O)N1CCc1ccc(C(=O)O)cc1
0.1 nM	CCCC/C(C)=C\C=C\[C@H]1CCC(=O)N1CCc1ccc(C(=O)O)cc1
2 nM	CCCC/C=C\C=C\[C@H]1CCC(=O)N1CCc1ccc(C(=O)O)cc1
3 nM	CC/C(C)=C\C=C\[C@H]1CCC(=O)N1CCc1ccc(C(=O)O)cc1
4 nM	CC(C)=C/C=C/[C@H]1CCC(=O)N1CCc1ccc(C(=O)O)cc1

Target: T4, Prostaglandin E2 receptor EP2 subtype
Experiment: Agonist activity at EP2 receptor expressed in HEK293 cells assessed as cAMP accumulation
Format: functional, cell-based
Conditions: not given

EC50	Compound
> 10000 nM	C/C(=C\C=C\[C@H]1CCC(=O)N1CCc1ccc(C(=O)O)cc1)c1ccccc1
16 nM	CCCC[C@H](O)/C=C/[C@H]1CCC(=O)N1CCc1ccc(C(=O)O)cc1
222 nM	CCCC/C(C)=C/C=C/[C@H]1CCC(=O)N1CCc1ccc(C(=O)O)cc1
35 nM	CCCC/C(C)=C\C=C\[C@H]1CCC(=O)N1CCc1ccc(C(=O)O)cc1
197 nM	CCCC/C=C\C=C\[C@H]1CCC(=O)N1CCc1ccc(C(=O)O)cc1
